# Experiments:
# Experiment in all cases: Kinase selectivity profiling
# Assay type in all cases: biochemical
# [1] = molecular target: CDK2-Cyclin A (Homo sapiens, UniProt P24941); settings: 110-kinase panel, read-out: % activity remaining, CDK22Cyclin A
# Description: (§1) Compound 28c was profiled against a panel of 110 kinases at the International Centre for Protein Kinase Profiling, Division of Signal Transduction Therapy, University of Dundee. Compound 40f was profiled against a panel of 50 kinases (MRC-PPU Express Screen) also at the International Centre for Protein Kinase Profiling.
# [2] = molecular target: EPH-B2 (Homo sapiens, UniProt P29323); settings: 110-kinase panel, read-out: % activity remaining, EPH2B2
# Sequence of EPH-B2 (P29323 19-1055): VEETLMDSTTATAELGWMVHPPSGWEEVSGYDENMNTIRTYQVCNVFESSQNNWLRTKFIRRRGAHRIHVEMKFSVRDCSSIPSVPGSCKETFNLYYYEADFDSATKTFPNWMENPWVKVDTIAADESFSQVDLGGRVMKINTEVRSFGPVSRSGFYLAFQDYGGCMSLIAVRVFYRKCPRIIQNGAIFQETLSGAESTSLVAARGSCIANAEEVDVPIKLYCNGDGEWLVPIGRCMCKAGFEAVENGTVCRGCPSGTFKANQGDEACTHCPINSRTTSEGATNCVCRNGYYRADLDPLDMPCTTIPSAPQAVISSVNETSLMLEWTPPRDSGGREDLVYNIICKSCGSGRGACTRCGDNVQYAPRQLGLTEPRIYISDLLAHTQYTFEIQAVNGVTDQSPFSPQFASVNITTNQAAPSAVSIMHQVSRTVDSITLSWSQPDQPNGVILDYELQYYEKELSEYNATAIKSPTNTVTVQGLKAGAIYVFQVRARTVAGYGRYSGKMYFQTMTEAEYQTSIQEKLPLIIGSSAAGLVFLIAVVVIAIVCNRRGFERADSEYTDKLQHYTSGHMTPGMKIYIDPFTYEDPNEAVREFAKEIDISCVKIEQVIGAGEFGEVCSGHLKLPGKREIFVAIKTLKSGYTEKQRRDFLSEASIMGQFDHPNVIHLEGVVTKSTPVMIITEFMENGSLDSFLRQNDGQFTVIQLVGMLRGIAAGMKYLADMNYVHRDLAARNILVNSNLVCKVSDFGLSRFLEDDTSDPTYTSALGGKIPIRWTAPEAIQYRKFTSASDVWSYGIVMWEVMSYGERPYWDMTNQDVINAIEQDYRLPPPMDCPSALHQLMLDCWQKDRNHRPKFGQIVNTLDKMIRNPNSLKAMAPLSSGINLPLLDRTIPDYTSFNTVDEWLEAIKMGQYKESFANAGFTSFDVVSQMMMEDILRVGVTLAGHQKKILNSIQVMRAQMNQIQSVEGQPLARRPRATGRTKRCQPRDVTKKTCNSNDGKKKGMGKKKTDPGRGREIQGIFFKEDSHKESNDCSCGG
# Description: as §1
# [3] = molecular target: CK1 (Homo sapiens, UniProt P48730); settings: 110-kinase panel
# Sequence of CK1 (P48730 whole entry): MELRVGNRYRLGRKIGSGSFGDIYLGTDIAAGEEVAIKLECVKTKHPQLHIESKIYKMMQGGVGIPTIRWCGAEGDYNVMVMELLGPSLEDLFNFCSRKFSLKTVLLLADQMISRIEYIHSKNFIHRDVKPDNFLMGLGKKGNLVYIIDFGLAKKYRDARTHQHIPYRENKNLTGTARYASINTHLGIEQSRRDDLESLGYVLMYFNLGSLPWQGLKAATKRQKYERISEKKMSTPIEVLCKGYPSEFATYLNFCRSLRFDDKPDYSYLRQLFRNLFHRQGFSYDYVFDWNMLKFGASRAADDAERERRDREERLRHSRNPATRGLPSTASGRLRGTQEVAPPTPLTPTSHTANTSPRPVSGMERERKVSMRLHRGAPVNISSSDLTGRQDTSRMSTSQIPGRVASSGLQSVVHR
# Description: as §1
compound,measurement,setting,value
"Cc1nn(C)cc1-c1nc2c(Oc3ccc(C(=O)Nc4ccccc4)cc3)c(Cl)cnc2[nH]1 [compound 28c, 4-((6-Chloro-2-(1,3-dimethyl-1H-pyrazol-4-yl)-3H-imidazo[4,5-b]pyridin-7-yl)oxy)-N-phenylbenzamide]",remaining activity at 1 µM,[1],58%
same,remaining activity at 1 µM,[2],91%
same,remaining activity at 1 µM,[3],86%

# Reference: PMC3848336, “Aurora Isoform Selectivity: Design and Synthesis of Imidazo[4,5-b]pyridine Derivatives as Highly Selective Inhibitors of Aurora-A Kinase in Cells” (Journal of Medicinal Chemistry, 2013)
